From ChEMBL document CHEMBL1133574, “alpha-Substituted N-(sulfonamido)alkyl-beta-aminotetralins: potent and selective neuropeptide Y Y5 receptor antagonists” (J Med Chem, 2000)

Target: T1, Neuropeptide Y receptor type 5 (Homo sapiens, UniProt Q15761)
T1 sequence (Q15761 whole entry): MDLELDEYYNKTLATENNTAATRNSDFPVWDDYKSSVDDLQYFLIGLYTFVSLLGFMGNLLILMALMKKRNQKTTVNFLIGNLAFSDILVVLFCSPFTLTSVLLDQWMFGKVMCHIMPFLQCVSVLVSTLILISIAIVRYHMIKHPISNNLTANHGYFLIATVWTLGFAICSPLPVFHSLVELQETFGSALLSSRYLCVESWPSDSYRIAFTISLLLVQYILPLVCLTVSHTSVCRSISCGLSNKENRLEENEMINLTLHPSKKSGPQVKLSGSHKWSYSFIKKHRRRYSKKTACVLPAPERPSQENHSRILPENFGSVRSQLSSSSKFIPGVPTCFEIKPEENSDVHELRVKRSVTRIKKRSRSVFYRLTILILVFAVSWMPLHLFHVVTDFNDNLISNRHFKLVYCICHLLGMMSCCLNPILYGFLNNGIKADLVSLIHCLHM
Experiment: Inhibition of [125I]-PYY binding to recombinant NPY Y5 receptor on HEK293 cell membranes.
Assay type: cell-based

First: O=C(CN1CCC(NS(=O)(=O)c2ccccc2)CC1)NC1CCc2cc(F)ccc2C1Cc1cccnc1 (configuration not stated)
Second: O=C(CN1CC[C@@H](NS(=O)(=O)c2ccccc2)C1)NC1CCc2cc(F)ccc2C1Cc1cccnc1 (some centres not stated)
The IC50 of the first is 2.7-fold lower: 10 nM for the first, 27 nM for the second. The first is the more potent here.

Going from `COc1ccc2c(c1)CCC(NCCCCCCNS(=O)(=O)c1ccccc1)C2Cc1cccnc1` (configuration not stated) to `COc1ccc2c(c1)CCC(NC[C@H]1CC[C@H](CNS(=O)(=O)c3ccccc3)CC1)C2Cc1cccnc1` (some centres not stated), the IC50 falls from 53 nM to 10 nM (5.3-fold).

Going from `C=CCC1c2ccc(F)cc2CCC1NC(=O)[C@H]1CC[C@H](CNS(=O)(=O)c2ccccc2)CC1` (some centres not stated) to `C=CCC1c2ccc(F)cc2CCC1NC[C@H]1CC[C@H](CNS(=O)(=O)c2ccccc2)CC1` (some centres not stated), the IC50 falls from 75 nM to 21 nM (3.6-fold). The second is the more potent here.

First: O=S(=O)(NC[C@H]1CC[C@H](CNC2CCc3cc(O)ccc3C2Cc2cccnc2)CC1)c1ccccc1F (some centres not stated)
Second: O=S(=O)(NC[C@H]1CC[C@H](CNC2CCc3cc(F)ccc3C2Cc2cccnc2)CC1)c1ccccc1F (some centres not stated)
The IC50 of the first is 2.7-fold lower: 7 nM for the first, 19 nM for the second. The first is the more potent here.

Compared with `COc1ccc2c(c1)CCC(NC[C@H]1CC[C@H](CNS(=O)(=O)c3ccccc3F)CC1)C2Cc1cccnc1` (some centres not stated), `COc1ccc2c(c1)CCC(NC(=O)[C@H]1CC[C@H](CNS(=O)(=O)c3ccccc3F)CC1)C2Cc1cccnc1` (some centres not stated) is 2.1-fold lower in IC50: 23 nM for the first, 11 nM for the second.

`COc1ccc2c(c1)CCC(NC[C@H]1CC[C@H](CNS(=O)(=O)c3ccc4ccccc4c3)CC1)C2Cc1ccccc1` (some centres not stated) and `COc1ccc2c(c1)CCC(NC[C@H]1CC[C@H](CNS(=O)(=O)c3ccc4ccccc4c3)CC1)C2Cc1cccnc1` (some centres not stated) are within 1.5-fold of each other in IC50: 443 nM for the first, 337 nM for the second.

Going from `O=C(NC1CCc2cc(F)ccc2C1Cc1cccnc1)[C@H]1CC[C@H](CNS(=O)(=O)c2ccccc2)CC1` (some centres not stated) to `COc1ccc2c(c1)CCC(NC(=O)[C@H]1CC[C@H](CNS(=O)(=O)c3ccccc3)CC1)C2Cc1cccnc1` (some centres not stated), the IC50 falls from 40 nM to 11 nM (3.6-fold).

First: O=S(=O)(NC[C@H]1CC[C@H](CNC2CCc3cc(F)ccc3C2Cc2cccnc2)CC1)c1ccccc1 (some centres not stated)
Second: O=C(NC1CCc2cc(F)ccc2C1Cc1cccnc1)[C@H]1CC[C@H](CNS(=O)(=O)c2ccccc2F)CC1 (some centres not stated)
The IC50 of the first is 2.2-fold higher: 27 nM for the first, 12 nM for the second. The second is the more potent here.

`C=CCC1c2ccc(O)cc2CCC1NC[C@H]1CC[C@H](CNS(=O)(=O)c2ccccc2)CC1` (some centres not stated) and `O=C(CN1CC[C@H](NS(=O)(=O)c2ccccc2)C1)NC1CCc2cc(F)ccc2C1Cc1cccnc1` (some centres not stated) are the same in IC50: 5 nM for the first, 5 nM for the second.

Going from `N[C@@H](CCCCNS(=O)(=O)c1ccccc1F)C(=O)NC1CCc2cc(F)ccc2C1Cc1cccnc1` (some centres not stated) to `N[C@@H](CCCCNS(=O)(=O)c1ccccc1F)CNC1CCc2cc(O)ccc2C1Cc1cccnc1` (some centres not stated), the IC50 falls from 22 nM to 1 nM (22-fold).

Going from `O=C(CN1CCC(NS(=O)(=O)c2ccccc2)C1)NC1CCc2cc(F)ccc2C1Cc1cccnc1` (configuration not stated) to `COc1ccc2c(c1)CCC(NCCc1ccc(OC)c(OC)c1)C2Cc1ccccc1` (configuration not stated), the IC50 rises from 11 nM to 900 nM (82-fold).
